{"source": "patent US20060079680A1", "about": "“Pyrazoloazepine compounds as pharmaceutical agents” (Eli Lilly and Company Patent Division, priority 2002, published 2006)"}
{"compound": "c1ccc(-c2nn3c(c2-c2ccnc4cc(OCCN5CCOCC5)ccc24)CCCCC3)nc1", "note": "[Example 4, 3-[7-(2-Morpholin-4-yl-ethoxy)-quinolin-4-yl]-2-pyridin-2-yl-5,6,7,8-tetrahydro-4H-pyrazolo[1,5-a]azepine]", "values": [{"measurement": "melting point", "result": "157 to 159", "unit": "°C"}]}
